In patent US8344008B2 (Janssen Pharmaceutica NV, priority 2007, dated 2013):

The molecules below were run against T1, recombinant human LTA4 hydrolase (rhLTA4H) (Homo sapiens, UniProt P09960) (assay: Recombinant Human LTA4 Hydrolase Assay for LTA4 Hydrolase Inhibitor Activity). Conditions: average of results obtained; LTB4 quantified by enzyme-linked immunoassay.
T1 construct: made in house; host or cells: Spodoptera frugiperda (Sf-9) cells, baculovirus (pFastBac1)
T1 sequence (P09960 1-611): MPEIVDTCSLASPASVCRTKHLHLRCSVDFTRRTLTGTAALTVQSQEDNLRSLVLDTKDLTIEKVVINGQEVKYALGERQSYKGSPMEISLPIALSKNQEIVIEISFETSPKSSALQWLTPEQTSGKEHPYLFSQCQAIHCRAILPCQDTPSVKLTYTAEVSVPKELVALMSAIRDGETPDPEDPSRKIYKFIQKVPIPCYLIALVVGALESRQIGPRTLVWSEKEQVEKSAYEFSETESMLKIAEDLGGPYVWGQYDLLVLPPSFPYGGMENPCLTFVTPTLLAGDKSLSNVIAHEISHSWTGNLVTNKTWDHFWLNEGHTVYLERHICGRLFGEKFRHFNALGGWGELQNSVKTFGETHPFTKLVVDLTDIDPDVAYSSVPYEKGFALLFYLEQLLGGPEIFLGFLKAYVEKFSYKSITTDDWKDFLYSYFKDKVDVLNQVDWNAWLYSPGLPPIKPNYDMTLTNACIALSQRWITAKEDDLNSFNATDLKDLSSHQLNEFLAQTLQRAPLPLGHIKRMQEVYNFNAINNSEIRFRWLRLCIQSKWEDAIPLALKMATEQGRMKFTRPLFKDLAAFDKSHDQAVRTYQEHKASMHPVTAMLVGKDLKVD
Type: biochemical
How it was run: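 Baculovirus/Sf-9-expressed human LTA4 hydrolase (36 ng) preincubated with compound 10 min at rt in 0.1 M potassium phosphate pH 7.4, 5 mg/mL fatty-acid-free BSA. Reaction started with 9 ng LTA4 free acid, run 10 min at rt; LTB4 measured by enzyme immunoassay, IC50 from 4-parameter fit.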

In order of falling Ki:
1. O=S(=O)(c1ccsc1)N1CC2CN(Cc3ccc(Oc4nc5ccccc5s4)cc3)CC2C1 (stereo not drawn) [Example 125, 2-{4-[5-(Thiophene-3-sulfonyl)-hexahydro-pyrrolo[3,4-c]pyrrol-2-ylmethyl]-phenoxy}-benzothiazole]  3620 nM
2. O=S(=O)(c1cccs1)N1CC2CN(Cc3ccc(Oc4nc5ccccc5s4)cc3)CC2C1 (stereo not drawn) [Example 124, 2-{4-[5-(Thiophene-2-sulfonyl)-hexahydro-pyrrolo[3,4-c]pyrrol-2-ylmethyl]-phenoxy}-benzothiazole]  2290 nM
3. O=S(=O)(c1ccco1)N1CC2CN(Cc3ccc(Oc4nc5ccccc5s4)cc3)CC2C1 (stereo not drawn) [Example 121, 2-{4-[5-(Furan-2-sulfonyl)-hexahydro-pyrrolo[3,4-c]pyrrol-2-ylmethyl]-phenoxy}-benzothiazole]  631 nM
4. CS(=O)(=O)N1CCC2CN(Cc3ccc(Oc4nc5ccccc5s4)cc3)CC21 (stereo not drawn) [Example 127, 2-[4-(1-Methanesulfonyl-hexahydro-pyrrolo[3,4-b]pyrrol-5-ylmethyl)-phenoxy]-benzothiazole]  273 nM
5. O=C(C1CNC1)N1CC2CN(Cc3ccc(Oc4nc5ccccc5s4)cc3)CC2C1 (stereo not drawn) [Example 99, Azetidin-3-yl-{5-[4-(benzothiazol-2-yloxy)-benzyl]-hexahydro-pyrrolo[3,4-c]pyrrol-2-yl}-methanone]  221 nM
6. O=S(=O)(c1cccnc1)N1CC2CN(Cc3ccc(Oc4nc5ccccc5s4)cc3)CC2C1 (stereo not drawn) [Example 120, 2-{4-[5-(Pyridine-3-sulfonyl)-hexahydro-pyrrolo[3,4-c]pyrrol-2-ylmethyl]-phenoxy}-benzothiazole]  205 nM
7. O=C([C@H]1CCCO1)N1CC2CN(Cc3ccc(Oc4nc5ccccc5s4)cc3)CC2C1 (stereo partly drawn) [Example 100, (R)-{5-[4-(Benzothiazol-2-yloxy)-benzyl]-hexahydro-pyrrolo[3,4-c]pyrrol-2-yl}-(tetrahydro-furan-2-yl)-methanone]  168 nM
8. Cn1cnc(S(=O)(=O)N2CC3CN(Cc4ccc(Oc5nc6ccccc6s5)cc4)CC3C2)c1 (stereo not drawn) [Example 122, 2-{4-[5-(1-Methyl-1H-imidazole-4-sulfonyl)-hexahydro-pyrrolo[3,4-c]pyrrol-2-ylmethyl]-phenoxy}-benzothiazole]  139 nM
9. O=C(c1ccsc1)N1CC2CN(Cc3ccc(Oc4nc5ccccc5s4)cc3)CC2C1 (stereo not drawn) [Example 109, {5-[4-(Benzothiazol-2-yloxy)-benzyl]-hexahydro-pyrrolo[3,4-c]pyrrol-2-yl}-thiophen-3-yl-methanone]  135 nM
10. CS(=O)(=O)N1CC2CCN(Cc3ccc(Oc4nc5ccccc5s4)cc3)C2C1 (stereo not drawn) [Example 128, 2-[4-(5-Methanesulfonyl-hexahydro-pyrrolo[3,4-b]pyrrol-1-ylmethyl)-phenoxy]-benzothiazole]  120 nM
11. O=C([C@@H]1CCCO1)N1CC2CN(Cc3ccc(Oc4nc5ccccc5s4)cc3)CC2C1 (stereo partly drawn) [Example 101, (S)-{5-[4-(Benzothiazol-2-yloxy)-benzyl]-hexahydro-pyrrolo[3,4-c]pyrrol-2-yl}-(tetrahydro-furan-2-yl)-methanone]  108 nM
12. O=C(CC(F)(F)F)N1CC2CN(Cc3ccc(Oc4nc5ccccc5s4)cc3)CC2C1 (stereo not drawn) [Example 113, 1-{5-[4-(Benzothiazol-2-yloxy)-benzyl]-hexahydro-pyrrolo[3,4-c]pyrrol-2-yl}-3,3,3-trifluoro-propan-1-one]  100 nM
13. Cn1ccc(C(=O)N2CC3CN(Cc4ccc(Oc5nc6ccccc6s5)cc4)CC3C2)c1 (stereo not drawn) [Example 108, {5-[4-(Benzothiazol-2-yloxy)-benzyl]-hexahydro-pyrrolo[3,4-c]pyrrol-2-yl}-(1-methyl-1H-pyrrol-3-yl)-methanone]  97 nM
14. Cn1ccc(S(=O)(=O)N2CC3CN(Cc4ccc(Oc5nc6ccccc6s5)cc4)CC3C2)c1 (stereo not drawn) [Example 123, 2-{4-[5-(1-Methyl-1H-pyrrole-3-sulfonyl)-hexahydro-pyrrolo[3,4-c]pyrrol-2-ylmethyl]-phenoxy}-benzothiazole]  97 nM
15. O=C(c1ccoc1)N1CC2CN(Cc3ccc(Oc4nc5ccccc5s4)cc3)CC2C1 (stereo not drawn) [Example 110, {5-[4-(Benzothiazol-2-yloxy)-benzyl]-hexahydro-pyrrolo[3,4-c]pyrrol-2-yl}-furan-3-yl-methanone]  88 nM
16. NS(=O)(=O)N1CC2CN(Cc3ccc(Oc4nc5ccccc5s4)cc3)CC2C1 (stereo not drawn) [Example 119, 5-[4-(Benzothiazol-2-yloxy)-benzyl]-hexahydro-pyrrolo[3,4-c]pyrrole-2-sulfonic acid amide]  72 nM
17. O=C(c1cnccn1)N1CC2CN(Cc3ccc(Oc4nc5ccccc5s4)cc3)CC2C1 (stereo not drawn) [Example 105, {5-[4-(Benzothiazol-2-yloxy)-benzyl]-hexahydro-pyrrolo[3,4-c]pyrrol-2-yl}-pyrazin-2-yl-methanone]  69 nM
18. O=C(C1CCC1)N1CC2CN(Cc3ccc(Oc4nc5ccccc5s4)cc3)CC2C1 (stereo not drawn) [Example 104, {5-[4-(Benzothiazol-2-yloxy)-benzyl]-hexahydro-pyrrolo[3,4-c]pyrrol-2-yl}-cyclobutyl-methanone]  62 nM
19. O=C(C1CCOCC1)N1CC2CN(Cc3ccc(Oc4nc5ccccc5s4)cc3)CC2C1 (stereo not drawn) [Example 103, {5-[4-(Benzothiazol-2-yloxy)-benzyl]-hexahydro-pyrrolo[3,4-c]pyrrol-2-yl}-(tetrahydro-pyran-4-yl)-methanone]  51 nM
20. O=C(C1CCOC1)N1CC2CN(Cc3ccc(Oc4nc5ccccc5s4)cc3)CC2C1 (stereo not drawn) [Example 102, {5-[4-(Benzothiazol-2-yloxy)-benzyl]-hexahydro-pyrrolo[3,4-c]pyrrol-2-yl}-(tetrahydro-furan-3-yl)-methanone]  46 nM
21. O=C(CNC(=O)C(F)(F)F)N1CCC2CN(Cc3ccc(Oc4nc5ccccc5s4)cc3)CC21 (stereo not drawn) [Example 98, N-(2-{5-[4-(Benzothiazol-2-yloxy)-benzyl]-hexahydro-pyrrolo[3,4-b]pyrrol-1-yl}-2-oxo-ethyl)-2,2,2-trifluoro-acetamide]  40 nM
22. CS(=O)(=O)N1CC2CN(Cc3ccc(Oc4nc5ccccc5s4)cc3)CC2C1 (stereo not drawn) [Example 129, 2-[4-(5-Methanesulfonyl-hexahydro-pyrrolo[3,4-c]pyrrol-2-ylmethyl)-phenoxy]-benzothiazole]  35 nM
23. NCC(=O)N1CC2CN(Cc3ccc(Oc4nc5ccccc5s4)cc3)CC2C1 (stereo not drawn) [Example 97, 2-Amino-1-{5-[4-(benzothiazol-2-yloxy)-benzyl]-hexahydro-pyrrolo[3,4-c]pyrrol-2-yl}-ethanone]  33 nM
24. O=C(c1ccno1)N1CC2CN(Cc3ccc(Oc4nc5ccccc5s4)cc3)CC2C1 (stereo not drawn) [Example 114, {5-[4-(Benzothiazol-2-yloxy)-benzyl]-hexahydro-pyrrolo[3,4-c]pyrrol-2-yl}-isoxazol-5-yl-methanone]  33 nM
25. O=C(CO)N1CC2CN(Cc3ccc(Oc4nc5ccccc5s4)cc3)CC2C1 (stereo not drawn) [Example 118, 1-{5-[4-(Benzothiazol-2-yloxy)-benzyl]-hexahydro-pyrrolo[3,4-c]pyrrol-2-yl}-2-hydroxy-ethanone]  23 nM
26. O=C(c1cccs1)N1CC2CN(Cc3ccc(Oc4nc5ccccc5s4)cc3)CC2C1 (stereo not drawn) [Example 107, {5-[4-(Benzothiazol-2-yloxy)-benzyl]-hexahydro-pyrrolo[3,4-c]pyrrol-2-yl}-thiophen-2-yl-methanone]  20 nM
27. O=C(CO)N1CC2CCN(Cc3ccc(Oc4nc5ccccc5s4)cc3)CC2C1 (stereo not drawn) [Example 117, 1-{5-[4-(Benzothiazol-2-yloxy)-benzyl]-octahydro-pyrrolo[3,4-c]pyridin-2-yl}-2-hydroxy-ethanone]  20 nM
28. O=S(=O)(C1CC1)N1CC2CN(Cc3ccc(Oc4nc5ccccc5s4)cc3)CC2C1 (stereo not drawn) [Example 126, 2-[4-(5-Cyclopropanesulfonyl-hexahydro-pyrrolo[3,4-c]pyrrol-2-ylmethyl)-phenoxy]-benzothiazole]  17 nM
29. O=C(CO)N1CCC2CN(Cc3ccc(Oc4nc5ccccc5s4)cc3)CC2C1 (stereo not drawn) [Example 116, 1-{2-[4-(Benzothiazol-2-yloxy)-benzyl]-octahydro-pyrrolo[3,4-c]pyridin-5-yl}-2-hydroxy-ethanone]  13 nM
30. O=C(C1CC1)N1CC2CN(Cc3ccc(Oc4nc5ccccc5s4)cc3)CC2C1 (stereo not drawn) [Example 111, {5-[4-(Benzothiazol-2-yloxy)-benzyl]-hexahydro-pyrrolo[3,4-c]pyrrol-2-yl}-cyclopropyl-methanone]  10 nM
31. O=C(N1CCOCC1)N1CC2CN(Cc3ccc(Oc4nc5ccccc5s4)cc3)CC2C1 (stereo not drawn) [Example 115, {5-[4-(Benzothiazol-2-yloxy)-benzyl]-hexahydro-pyrrolo[3,4-c]pyrrol-2-yl}-morpholin-4-yl-methanone]  10 nM
32. O=C(c1ccco1)N1CC2CN(Cc3ccc(Oc4nc5ccccc5s4)cc3)CC2C1 (stereo not drawn) [Example 106, {5-[4-(Benzothiazol-2-yloxy)-benzyl]-hexahydro-pyrrolo[3,4-c]pyrrol-2-yl}-furan-2-yl-methanone]  3 nM
33. O=C(CF)N1CC2CN(Cc3ccc(Oc4nc5ccccc5s4)cc3)CC2C1 (stereo not drawn) [Example 112, 1-{5-[4-(Benzothiazol-2-yloxy)-benzyl]-hexahydro-pyrrolo[3,4-c]pyrrol-2-yl}-2-fluoro-ethanone]  2 nM
